Converted amounts (≈) assume the structure as drawn.
Experiments:
[1] = target: T1, cGMP-dependent protein kinase 1 (Homo sapiens, UniProt Q13976); experiment: Inhibition of full length recombinant N-terminal GST-tagged human PKG expressed in baculovirus infected Sf9 insect cells using RSK as substrate preincubated for 15 mins followed by substrate addition and measured after 30 mins in presence of ATP by ADP Glo kinase assay
T1 sequence (Q13976 whole entry): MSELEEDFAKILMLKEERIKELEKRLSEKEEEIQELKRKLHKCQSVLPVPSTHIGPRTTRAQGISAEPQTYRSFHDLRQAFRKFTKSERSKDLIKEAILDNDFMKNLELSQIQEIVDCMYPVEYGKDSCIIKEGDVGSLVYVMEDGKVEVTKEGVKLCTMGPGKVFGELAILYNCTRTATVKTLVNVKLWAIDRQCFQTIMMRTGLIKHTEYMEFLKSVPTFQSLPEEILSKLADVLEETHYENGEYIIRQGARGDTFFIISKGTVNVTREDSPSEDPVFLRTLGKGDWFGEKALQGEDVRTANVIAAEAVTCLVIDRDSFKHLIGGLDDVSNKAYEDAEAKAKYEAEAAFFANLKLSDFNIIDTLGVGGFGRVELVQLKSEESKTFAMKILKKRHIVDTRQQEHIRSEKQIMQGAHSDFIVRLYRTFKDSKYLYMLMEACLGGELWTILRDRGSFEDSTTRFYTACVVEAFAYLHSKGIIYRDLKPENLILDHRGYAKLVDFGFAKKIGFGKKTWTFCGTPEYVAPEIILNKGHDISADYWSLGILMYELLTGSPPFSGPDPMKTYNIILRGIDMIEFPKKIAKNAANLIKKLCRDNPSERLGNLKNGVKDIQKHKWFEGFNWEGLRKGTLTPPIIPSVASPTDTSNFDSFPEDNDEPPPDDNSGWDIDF

[2] = target: Rho-associated protein kinase 2 (Homo sapiens, UniProt O75116); experiment: Inhibition of recombinant N-terminal GST-tagged human ROCK2 (5 to 554 residues) expressed in baculovirus infected Sf9 cells using S6K as substrate incubated for 30 mins in presence of ATP by ADP Glo kinase assay
Sequence of Rho-associated protein kinase 2 (O75116 whole entry, the tested form may be a part): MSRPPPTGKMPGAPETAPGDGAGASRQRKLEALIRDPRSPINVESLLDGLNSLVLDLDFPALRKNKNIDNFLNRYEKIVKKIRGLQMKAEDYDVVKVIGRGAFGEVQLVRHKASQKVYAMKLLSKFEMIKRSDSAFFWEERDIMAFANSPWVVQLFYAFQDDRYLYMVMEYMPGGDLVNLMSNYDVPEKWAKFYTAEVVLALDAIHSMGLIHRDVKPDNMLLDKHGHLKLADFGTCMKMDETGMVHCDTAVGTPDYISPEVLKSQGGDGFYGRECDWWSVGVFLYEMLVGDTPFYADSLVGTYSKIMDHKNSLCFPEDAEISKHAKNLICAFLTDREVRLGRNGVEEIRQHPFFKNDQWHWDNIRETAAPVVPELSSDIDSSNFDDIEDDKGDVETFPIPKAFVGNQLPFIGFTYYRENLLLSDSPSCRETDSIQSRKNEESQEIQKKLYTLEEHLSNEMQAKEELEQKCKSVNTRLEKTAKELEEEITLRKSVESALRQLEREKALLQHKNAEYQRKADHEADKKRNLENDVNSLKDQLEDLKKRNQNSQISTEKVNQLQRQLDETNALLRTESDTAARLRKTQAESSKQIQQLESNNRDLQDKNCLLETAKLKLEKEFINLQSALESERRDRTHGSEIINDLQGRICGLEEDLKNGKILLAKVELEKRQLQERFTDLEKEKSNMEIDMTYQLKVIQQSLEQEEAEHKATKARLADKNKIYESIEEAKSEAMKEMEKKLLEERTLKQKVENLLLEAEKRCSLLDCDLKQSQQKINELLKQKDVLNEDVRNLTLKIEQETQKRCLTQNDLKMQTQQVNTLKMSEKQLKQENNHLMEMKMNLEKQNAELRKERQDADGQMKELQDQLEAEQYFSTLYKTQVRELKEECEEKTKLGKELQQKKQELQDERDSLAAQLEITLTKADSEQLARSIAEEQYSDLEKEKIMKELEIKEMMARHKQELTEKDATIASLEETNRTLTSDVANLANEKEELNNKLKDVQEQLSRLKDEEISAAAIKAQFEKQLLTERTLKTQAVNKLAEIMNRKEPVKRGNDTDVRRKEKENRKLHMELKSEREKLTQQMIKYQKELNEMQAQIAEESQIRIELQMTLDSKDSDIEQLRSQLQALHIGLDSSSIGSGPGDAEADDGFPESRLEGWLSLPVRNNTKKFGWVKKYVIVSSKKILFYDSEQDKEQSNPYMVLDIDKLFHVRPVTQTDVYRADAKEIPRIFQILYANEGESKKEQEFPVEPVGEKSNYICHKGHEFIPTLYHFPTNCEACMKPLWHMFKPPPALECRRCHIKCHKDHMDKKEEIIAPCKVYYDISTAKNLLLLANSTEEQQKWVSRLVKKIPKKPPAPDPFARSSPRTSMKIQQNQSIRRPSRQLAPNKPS

[3] = Inhibition of ROCK in rat A7R5 cells assessed as cofilin serine 3 phosphorylation incubated for 1 hr by ICW assay; settings: A7R5, 1 h
[4] = Kinetic solubility of the compound in pH 7.4 PBS buffer incubated for 2 hrs using orbital shaker by LC-UV mass spectrometry; type: physicochemical; settings: read-out: Kinetic_solubility
[5] = Lipophilicity, logP of compound; type: physicochemical; settings: octanol/water
[6] = Metabolic stability in mouse liver microsomes assessed as intrinsic clearance at 1 uM measured upto 40 mins in presence of NADPH by LC-MS/MS analysis; type: ADME, Microsome; settings: read-out: CLH
[7] = Distribution coefficient, logD of compound by chromatographic method; type: physicochemical; settings: octanol/water
[8] = Apparent permeability in MDCK-MDR1 cells at 10 uM after 1 hr by LC-MS/MS analysis; type: ADME, cell-based, Canis lupus familiaris; settings: dog
[9] = test system: MDR1; experiment: in vitro; settings: dog, MDCK-MDR1
Description: Efflux ratio of apparent permeability across basolateral to apical side to apical to basolateral side in MDCK-MDR1 cells at 10 uM measured after 1 hr by LC-MS/MS analysis

Row | Structure (SMILES) | IC50 [1] | IC50 [2] | IC50 [3] | solubility kinetic at 2 h [4] | logP [5] | CLint scaled at 1 µM [6] | chromatographic logD [7] | Papp at 1 h, 10 µM [8] | efflux ratio at 1 h, 10 µM [9]
1 | COc1ccc(F)c([C@@H](C)NC(=O)N2CCN(c3ccncc3F)C[C@H]2C)c1 | 13100 nM | 7 nM | 108 nM | – | – | – | – | – | –
2 | O=S(=O)(c1cccc2c(O)nccc12)N1CCCNCC1 [HYDROXYFASUDIL] | – | – | 3820 nM | > 200 µM | 1.43 | – | – | – | –
3 | COc1cccc([C@@H](C)NC(=O)N2CCC(c3ccncc3)CC2)c1 | 52800 nM | 74 nM | 673 nM | – | – | – | – | – | –
4 | COc1cc([C@@H](C)NC(=O)N2CCN(c3ccncc3F)C[C@H]2C)ccc1F | 2340 nM | 3 nM | 33 nM | – | – | – | – | – | –
5 | CS(=O)(=O)Nc1cccc(CC(=O)Nc2cc(-c3ccnc(F)c3)cs2)c1 | – | – | – | 77 µM (≈ 31.2 µg/mL) | 3.45 | – | – | – | –
6 | COc1cccc([C@@H](C)NC(=O)[C@H]2CC[C@H](c3ccncc3)CC2)c1 | 5030 nM | 98 nM | 974 nM | – | – | – | – | – | –
7 | COc1ccc(Cl)c([C@@H](C)NC(=O)N2CCN(c3ccncc3F)C[C@H]2C)c1 | 11600 nM | – | 164 nM | 120 µM (≈ 48.8 µg/mL) | 3.3 | 199 mL/min/kg | 2.7 | 122 ×10⁻⁶ cm/s | –
8 | COc1cccc([C@@H](C)NC(=O)[C@@H]2CC[C@@H](c3ccncc3)C[C@@H]2C)c1 | – | 851 nM | > 5000 nM | 11 µM (≈ 3.88 µg/mL) | – | – | – | – | –
9 | COc1cccc([C@@H](C)NC(=O)[C@H]2CC[C@H](c3ccncc3)C[C@H]2C)c1 | 33800 nM | 45 nM | 963 nM | 130 µM (≈ 45.8 µg/mL) | – | 90 mL/min/kg | – | 77.6 ×10⁻⁶ cm/s | 1.1
10 | C[C@@H]1CN(c2ccncc2F)CCN1C(=O)N[C@H](C)c1cccc2nccn12 | 8140 nM | – | 18 nM | – | – | – | – | – | –
11 | C[C@@H](N)[C@H]1CC[C@H](C(=O)Nc2ccncc2)CC1 [Y-27632] | – | – | 3030 nM | – | 0.62 | – | 1.03 | – | –

Continued, values first:

Row | IC50 [1] | IC50 [2] | IC50 [3] | solubility kinetic at 2 h [4] | logP [5] | CLint scaled at 1 µM [6] | chromatographic logD [7] | Papp at 1 h, 10 µM [8] | efflux ratio at 1 h, 10 µM [9] | Structure (SMILES)
12 | 48800 nM | 1640 nM | 3310 nM | – | – | – | – | – | – | COc1cccc([C@@H](C)NC(=O)N2CC[C@H](c3ccncc3)C[C@@H]2C)c1
13 | 1830 nM | 7 nM | 126 nM | – | – | – | – | – | – | COc1cccc([C@@H](C)NC(=O)N2CCN(c3ccncc3F)CC2)c1
14 | 23000 nM | 9 nM | 71 nM | – | – | – | – | – | – | COc1cccc([C@@H](C)NC(=O)N2CC[C@H](c3ccncc3)C[C@H]2C)c1
15 | 3600 nM | 280 nM | 4270 nM | – | – | – | – | – | – | COc1cccc([C@@H](C)NC(=O)c2ccc(-c3ccnc(F)c3)nn2)c1
16 | – | 534 nM | > 5000 nM | – | – | – | – | – | – | COc1cccc([C@@H](C)NC(=O)N2CCN(c3ccncc3)C(=O)C2)c1
17 | 19400 nM | 35 nM | 249 nM | – | – | – | – | – | – | COc1cccc([C@@H](C)NC(=O)N2CC[C@@H](c3ccncc3)C[C@H]2C)c1
18 | 53700 nM | 1300 nM | 4930 nM | – | – | – | – | – | – | COc1cccc([C@@H](C)NC(=O)N2CC[C@@H](c3ccncc3)C[C@@H]2C)c1
19 | 36500 nM | 23 nM | 264 nM | – | – | – | – | – | – | COc1cccc([C@@H](C)NC(=O)N2CCN(c3ccncn3)C[C@H]2C)c1
20 | 39 nM | 4 nM | 44 nM | – | – | – | – | – | – | COc1cccc([C@@H](C)NC(=O)c2ccc(-c3ccncc3)nc2)c1
21 | 24300 nM | 4330 nM | > 5000 nM | – | – | – | – | – | – | COc1cccc([C@@H](C)NC(=O)[C@H]2CC[C@@H](c3ccncc3)CC2)c1
22 | 31800 nM | 45 nM | 721 nM | – | – | – | – | – | – | COc1cccc([C@@H](C)NC(=O)N2CCC(c3ccncc3F)CC2)c1
23 | – | 4790 nM | 1460 nM | – | – | – | – | – | – | COc1cccc([C@@H](C)NC(=O)N2CCN(c3ccncc3)CC2)c1
24 | – | 50 nM | 1030 nM | – | – | – | – | – | – | COc1cccc([C@@H](C)NC(=O)c2ccc(-c3ccnc(F)c3)cn2)c1
25 | – | 15 nM | 830 nM | 17 µM (≈ 5.82 µg/mL) | 4.53 | – | 2.83 | – | – | COc1cccc(CC(=O)Nc2cc(-c3ccnc(F)c3)cs2)c1

Source: ChEMBL document CHEMBL5131572, “Identification of a Potent, Selective, and Brain-Penetrant Rho Kinase Inhibitor and its Activity in a Mouse Model of Huntington's Disease” (J Med Chem, 2022)
